The record followed here is ChEMBL document CHEMBL3108702, “Purinergic receptor P2X₇: a novel target for anti-inflammatory therapy” (Bioorg Med Chem, 2014).

The target of the assay is T1, P2X purinoceptor 7 (Homo sapiens, UniProt Q99572).
T1 sequence (Q99572 whole entry): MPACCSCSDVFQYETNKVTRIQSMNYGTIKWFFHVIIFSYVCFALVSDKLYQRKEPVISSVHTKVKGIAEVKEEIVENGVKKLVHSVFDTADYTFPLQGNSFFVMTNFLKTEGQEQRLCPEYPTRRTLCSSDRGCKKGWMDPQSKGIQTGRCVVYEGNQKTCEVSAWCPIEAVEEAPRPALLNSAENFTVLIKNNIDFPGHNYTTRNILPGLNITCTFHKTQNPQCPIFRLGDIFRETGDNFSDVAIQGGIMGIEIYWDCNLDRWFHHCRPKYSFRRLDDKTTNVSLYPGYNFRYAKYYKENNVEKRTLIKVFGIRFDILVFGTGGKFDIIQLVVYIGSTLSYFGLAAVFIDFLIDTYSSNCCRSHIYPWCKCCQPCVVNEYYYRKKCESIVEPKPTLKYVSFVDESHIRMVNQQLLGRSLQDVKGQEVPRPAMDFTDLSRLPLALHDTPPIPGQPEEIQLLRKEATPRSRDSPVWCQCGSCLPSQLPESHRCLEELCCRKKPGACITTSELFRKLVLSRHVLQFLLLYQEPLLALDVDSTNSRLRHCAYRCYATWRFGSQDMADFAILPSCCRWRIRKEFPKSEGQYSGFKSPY
Description: Antagonist activity at P2X7 receptor (unknown origin).

Turning to `COc1ccc(Cl)c(NC(=O)CC23CC4CC(CC(C4)C2)C3)c1`, the IC50 (read-out: pIC50 (converted)) was 0.0631 µM.
Same read-out and setting: the result for `CN(CC12CC3CC(CC(C3)C1)C2)C(=O)c1ccc(Cl)cc1` reads 3.98 µM; that for `O=C(NCC12CC3CC(CC(C3)C1)C2)c1ccccc1Cl`, 0.00794 µM; that for `Cc1cccc(-c2nnnn2Cc2cccnc2)c1C`, 0.251 µM.
Same read-out and setting: then `O=C(NCC12CC3CC(CC(C3)C1)C2)c1ccc(Cl)cc1Cl`, with 0.398 µM.
As for `CN([C@@H](Cc1ccc(OS(=O)(=O)c2cccc3cnccc23)cc1)C(=O)N1CCN(Cc2ccccc2)CC1)S(=O)(=O)c1cccc2cnccc12`, the IC50 (read-out: IC50) stood at 0.0653 µM.
With `CN(Cc1ccc(Cl)cc1)CC12CC3CC(CC(C3)C1)C2`, the IC50 (read-out: pIC50 (converted)) is 3.98 µM.
Still for that read-out and setting: the result for `O=C(CC12CC3CC(CC(C3)C1)C2)Nc1ccc(Cl)cc1` reads 0.501 µM; that for `Cc1nn(-c2ccccc2)c(C)c1NC(=O)NCc1ccc(F)cc1Cl`, > 1 µM; that for `COc1cccc(-c2nnnn2Cc2cccnc2)c1OC`, 3.98 µM.
The same measure, in the same setting: the result for `COc1cccc(NC(=O)CC23CC4CC(CC(C4)C2)C3)c1C` reads 0.00501 µM; that for `O=C(NCC12CC3CC(C1)CC(CNC(=O)c1ccc(Cl)cc1Cl)(C3)C2)c1ccc(Cl)cc1Cl`, 0.126 µM.
On to `COc1ccc(C)c(NC(=O)CC23CC4CC(CC(C4)C2)C3)c1`, for which the IC50 (read-out: pIC50 (converted)) was 0.01 µM.
The same measure, in the same setting: then `CC(NC(=O)c1ccc(Cl)cc1)C12CC3CC(CC(C3)C1)C2` (stereo not drawn), with 0.398 µM.
Same read-out and setting: then `Clc1cccc(-n2ncnc2NCc2cccnc2)c1Cl`, with 0.00912 µM; and `Cc1nn(-c2ccccc2)c(C)c1Cc1nnc(Cc2ccc(Cl)cc2Cl)o1`, with > 1 µM.
On the same count and under the same terms, then `O=C(CN1CC(=O)N(c2ccccc2)C1=O)NCc1ccc(F)cc1Cl`, with > 1 µM.
In the case of `CN([C@@H](Cc1ccc(OS(=O)(=O)c2cccc3cnccc23)cc1)C(=O)N1CCN(c2ccccc2)CC1)S(=O)(=O)c1cccc2cnccc12`, for the setting “read-out: IC50”, the IC50 was 0.0944 µM.
